In data set [1] the test system is monoamine oxidase (MAO). Put plainly: MAO inhibiting activity in liver homogenates of rats one hour after p.o. administration. The data set is classed as in vivo. The note with it: p.o. in the rat; MAO activity measured in liver homogenates one hour after administration; 60 min. The method, then:
(§1) Thus, the thiobenzamides of formula I to be tested were administered p.o. to rats. One hour after the administration, the rats were killed and the MAO inhibiting activity in the liver homogenates was measured according to the method in Biochem. Pharmacol. 12, pp. 1439-1441 (1963). The thus determined activity of representative thiobenzamides of formula I as well as their toxicity is evident from the ED50 values (μmol/kg, p.o. in the rat) or LD50 values (mg/kg, p.o. in the mouse) listed in the Table which follows: […]

Data set [2] in a line: Toxicity (LD50), p.o. in the mouse. The note with it: in vivo, po. The method, then: as §1

The structures appear in SMILES notation.

Turning to `S=C(NCCN1CCOCC1)c1ccc(Br)cc1` [p-bromo-N-(2-morpholinoethyl)-thiobenzamide], the “ED50 (MAO inhibiting activity)” value in data set [1] is 2 µmol/kg. For the same molecule, in data set [2], the LD50 fell in the range of 1250 to 2500 mg/kg.
Regarding `S=C(NCCN1CCOCC1)c1ccc(Cl)cc1` [p-chloro-N-(2-morpholinoethyl)thiobenzamide], the “ED50 (MAO inhibiting activity)” value in data set [1] stood at 2 µmol/kg. For the same molecule, the LD50 in data set [2] fell in the range of 1250 to 2500 mg/kg.
Take `CC(C)(C)c1ccc(C(=S)NCCN2CCOCC2)cc1` [p-t-butyl-N-(2-morpholinoethyl)-thiobenzamide]: the “ED50 (MAO inhibiting activity)” value in data set [1] turned out to be 10 µmol/kg. In data set [2], the LD50 is over 5000 mg/kg.
